Measured values as given in patent US10941157B2, “Pesticidal compositions and uses thereof” (Gilead Apollo, LLC, priority 2015, dated 2021).
In brackets after ≈: the same amount, converted by molar mass. Like-named read-outs stand apart in the source and are kept apart here.

Columns and labels:
[1] = system: Fusarium virguliforme (Fv); assay: In vitro pathogen growth inhibition assay, Fv; type: cell-based
Procedure, shortened: (§1)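 Value reported is the compound concentration reaching ≥90% growth inhibition, from OD readings at 24 and 48 h after blank subtraction, confirmed visually. Inoculum was spores diluted in 17% V8 medium, except Rs, using 1.5 mm mycelial plugs in ¼ PDB; actual compound concentration corrected via OD600.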

[2] = system: Phytophthora capsici (Pc); assay: In vitro pathogen growth inhibition assay, Pc; type: cell-based; settings: 48 h
Procedure, shortened: as §1

[3] = system: Fusarium moniliforme (Fm); assay: In vitro pathogen growth inhibition assay, Fm; type: cell-based; settings: Fusarium verticillioides
Procedure, shortened: (§2)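 Spores in 17% V8 liquid medium, or 1.5 mm Rs mycelial plugs in ¼ PDB, incubated with compound; final concentration checked by OD600 for precipitation. OD readings at 24 and 48 h, blank-subtracted, plus visual ratings; value is concentration giving ≥90% growth inhibition.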

Botrtyis cinerea (Bc) = assay: In vitro pathogen growth inhibition assay, Bc; type: cell-based; settings: 48 h
Procedure, shortened: as §2

Diplodia maydis (Dm) = assay: In vitro pathogen growth inhibition assay, Dm; type: cell-based; settings: Stenocarpella maydis, 48 h
Procedure, shortened: as §1

[4] = system: Mycosphaerella graminicola (synthetic Septoria tritici); assay: Foliar protection test for wheat septoria leaf blotch control; type: in vivo; settings: foliar spray on Triticum aestivum cv. WinterHawk, inoculated 1 hour after treatment, evaluated 16 days later
Fusarium graminearum [5] = type: in vivo; settings: spray on flowering Triticum aestivum cv. Samson, inoculated 24 hours after treatment, evaluated 14 days later
Septoria tritici (St) = assay: In vitro pathogen growth inhibition assay, St; type: cell-based; settings: Zymoseptoria tritici, 48 h
Procedure, shortened: as §2

Puccinia triticina = assay: Foliar protection test for wheat leaf rust control; type: in vivo; settings: foliar application to wheat (Triticum aestivum cv. Winterhawk), evaluated 10 days later
Rhizoctonia solani (Rs) = assay: In vitro pathogen growth inhibition assay, Rs (mycelial plugs); type: cell-based; settings: Rhizoctonia solani, 48 h, mycelial plugs
Procedure, shortened: as §1

[6] = system: Collectotrichum graminicola (Cg); assay: In vitro pathogen growth inhibition assay, Cg; type: cell-based; settings: 48 h
Procedure, shortened: as §2

Fusarium graminearum [7] = type: in vivo; settings: corn from treated seeds, 0.025 mg/seed, F. graminearum inoculated
[8] = system: Blumeria graminis f. sp. hordei; assay: Foliar protection test for barley powdery mildew control; type: in vivo; settings: foliar spray on Hordeum vulgare cv. Perry, inoculated 24 hours after treatment, evaluated 7 days later
Procedure, shortened: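 Six-day-old barley (cv. Perry) sprayed to wetness on both leaf sides; 24 h later inoculated by shaking spores from infected stock plants. Kept at 20 to 22° C, 70% relative humidity; mildew colonization assessed 7 days later.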

Sphaerotheca fuliginea = assay: Foliar protection for cucumber powdery mildew control; type: in vivo; settings: foliar spray on Cucumis sativus cv. Straight Eight, inoculated 24 hours after treatment, evaluated 7 days later
Procedure, shortened: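 Cucumber plants (cv. Straight Eight, 10 days old) sprayed to wetness on both leaf surfaces, then inoculated 24 h later by shaking sporulating stock plants over them. Held at 23–27 °C, 16 h light, 60% RH. Mildew colonization scored 7 days after inoculation, at compound concentrations of 10 ppm or lower.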

Phakopsora pachyrhizi = assay: Foliar protection test for Asian soybean rust control; type: in vivo; settings: foliar application to soybean (Glycine max AG4832), percent disease area evaluated 14 days later
Pythium ultimum = assay: Seed protectant for soybean seedling disease, P. ultimum; type: in vivo; settings: soybean from treated seeds, 0.025 mg/seed, P. ultimum inoculated
Experimental: (§3) The pathogen of Rhizoctonia solani inoculum was grown on sterile sorghum; and the pathogen of Pythium ultimum inoculum was grown on white millet.
(§4) Soybean seeds (Glycine max cv. AG4832) were planted in 2.5-inch square pots containing Berger BM2 germination mix amended with fertilizer (e.g., 14-14-14). Pots with soil were inoculated with the pathogen of R. solani or P. ultimum at time of planting. A hole was pressed into the soil to a depth of about 2 to 3 cm; the inoculum was added to the hole, followed by the seed which was then covered with soil. Two seeds per pot were planted. Plants were grown in a growth chamber at conditions of 20 to 24° C., 14 hour light cycle, 500 uM of light, and 65% humidity. The pots inoculated with P. ultimum were sub-irrigated every day; and the pots inoculated with R. solani were sub-irrigated every other day.
(§5) Seedling emergence was captured at 7 and 14 days after seeding. At 14 days, the top of the plant was removed and fresh weight was recorded. The plant weights from the seeds treated with test compounds (e.g., in formulations) were compared to the ones either from the inoculated non-treated seeds or non-inoculated non-treated seeds. Table 10 lists the results of the R. solani control in soybean upon seed treatment with test compounds, and Table 11 lists the results of the P. ultimum control in soybean upon seed treatment with test compounds, respectively.

Rhizoctonia solani = assay: Seed protectant for soybean seedling disease, R. solani; type: in vivo; settings: soybean from treated seeds, 0.025 mg/seed, R. solani inoculated
Experimental: as §3, §4, §5

[9] = ≥90% growth inhibition, 48 hours, vs 2% DMSO control, read-out: Compound Concentration (ppm) sufficient for ≥90% inhibition of Fv
[10] = ≥90% growth inhibition, 48 hours, vs 2% DMSO control, read-out: Compound Concentration (ppm) sufficient for ≥90% inhibition of Pc
[11] = ≥90% growth inhibition, 48 hours, vs 2% DMSO control, read-out: Compound Concentration (ppm) sufficient for ≥90% inhibition of Fm
[12] = ≥90% growth inhibition, 48 hours, vs 2% DMSO control, read-out: Compound Concentration (ppm) sufficient for ≥90% inhibition of Bc
[13] = ≥90% growth inhibition, 48 hours, vs 2% DMSO control, read-out: Compound Concentration (ppm) sufficient for ≥90% inhibition of Dm
[14] = ≥90% growth inhibition, 48 hours, vs 2% DMSO control, read-out: Compound Concentration (ppm) sufficient for ≥90% inhibition of St
[15] = ≥90% growth inhibition, 48 hours, vs 2% DMSO control, read-out: Compound Concentration (ppm) sufficient for ≥90% inhibition of Rs
[16] = ≥90% growth inhibition, 48 hours, vs 2% DMSO control, read-out: Compound Concentration (ppm) sufficient for ≥90% inhibition of Cg
[17] = percentage of non-inoculated non-treated controls

Row | SMILES | IC90 [1, 9] | IC90 [2, 10] | IC90 [3, 11] | IC90 (Botrtyis cinerea (Bc); [12]) | IC90 (Diplodia maydis (Dm); [13]) | Septoria Leaf Blotch Control at a compound concentration of 25 ppm or lower [4] | Wheat Fusarium Head Blight Control at a compound concentration of 25 ppm or lower (Fusarium graminearum [5]) | IC90 (Septoria tritici (St); [14]) | Wheat Leaf Rust Control at a compound concentration of 10 ppm or lower (Puccinia triticina) | IC90 (Rhizoctonia solani (Rs); [15]) | IC90 [6, 16] | Plant Height (Fusarium graminearum [7]; Table 13) | Barley Powdery Mildew Control at a compound concentration of 10 ppm or lower [8] | Cucumber Powdery Mildew Control at a compound concentration of 10 ppm or lower (Sphaerotheca fuliginea) | Asian Soybean Rust Control at a compound concentration of 25 ppm or lower (Phakopsora pachyrhizi) | further results
1 | CCNC(=O)C(C)(C)n1c(=O)c2c(C)c(-n3nccn3)sc2n(C[C@H](OCCC#N)c2cc(F)ccc2OC)c1=O [Compound I-206, (R)-2-(1-(2-(2-cyanoethoxy)-2-(5-fluoro-2-methoxyphenyl)ethyl)-5-methyl-2,4-dioxo-6-(2H-1,2,3-triazol-2-yl)-1,4-dihydrothieno[2,3-d]pyrimidin-3 (2H)-yl)-N-ethyl-2-methylpropanamide] | 0.4 µg/mL (≈ 0.685 µM) | > 50 µg/mL | 0.08 µg/mL (≈ 0.137 µM) | 0.4 µg/mL (≈ 0.685 µM) | 0.4 µg/mL (≈ 0.685 µM) | AA (≥85% control of wheat septoria leaf blotch) | B (from 50 to 69% control of wheat fusarium head blight) | > 50 µg/mL | AA (≥85% control of wheat leaf rust) | 0.08 µg/mL (≈ 0.137 µM) | 0.4 µg/mL (≈ 0.685 µM) | 42.72 cm | AA (≥85% control of barley powdery mildew) | AA (≥85% control of cucumber powdery mildew) | AA (≥85% control of Asian soybean rust) | –
2 | COc1ccc(F)cc1[C@H](Cn1c(=O)n([C@H](C)C(=O)NC(C)C)c(=O)c2c(C)c(-n3nccn3)sc21)OCC(C)(C)C#N [Compound I-253, (R)-2-(1-((R)-2-(2-cyano-2-methylpropoxy)-2-(5-fluoro-2-methoxyphenyl)ethyl)-5-methyl-2,4-dioxo-6-(2H-1,2,3-triazol-2-yl)-1,4-dihydrothieno[2,3-d]pyrimidin-3 (2H)-yl)-N-isopropylpropanamide] | 0.4 µg/mL (≈ 0.654 µM) | ≥ 50 µg/mL | 0.08 µg/mL (≈ 0.131 µM) | 0.4 µg/mL (≈ 0.654 µM) | 0.4 µg/mL (≈ 0.654 µM) | AA (≥85% control of wheat septoria leaf blotch) | B (from 50 to 69% control of wheat fusarium head blight) | ≥ 2 µg/mL | AA (≥85% control of wheat leaf rust) | 0.08 µg/mL (≈ 0.131 µM) | 0.4 µg/mL (≈ 0.654 µM) | 37.81 cm | A (from 70% to 84% control of barley powdery mildew) | AA (≥85% control of cucumber powdery mildew) | A (from 70% to 84% control of Asian soybean rust) | –
3 | COc1ccc(F)cc1[C@@H](O)Cn1c(=O)n(C(C)(C)C(=O)NC(C)C)c(=O)c2c(C)c(-n3nccn3)sc21 [Compound I-185, (R)-2-(1-(2-(5-fluoro-2-methoxyphenyl)-2-hydroxyethyl)-5-methyl-2,4-dioxo-6-(2H-1,2,3-triazol-2-yl)-1,4-dihydrothieno[2,3-d]pyrimidin-3 (2H)-yl)-N-isopropyl-2-methylpropanamide] | 0.08 µg/mL (≈ 0.147 µM) | ≥ 10 µg/mL | 0.08 µg/mL (≈ 0.147 µM) | 0.4 µg/mL (≈ 0.734 µM) | 0.4 µg/mL (≈ 0.734 µM) | AA (≥85% control of wheat septoria leaf blotch) | A (from 70% to 84% control of wheat fusarium head blight) | ≥ 50 µg/mL | AA (≥85% control of wheat leaf rust) | 0.08 µg/mL (≈ 0.147 µM) | 0.4 µg/mL (≈ 0.734 µM) | – | AA (≥85% control of barley powdery mildew) | AA (≥85% control of cucumber powdery mildew) | AA (≥85% control of Asian soybean rust) | Plant Height (Fusarium graminearum [7]; Table 12): 45.66 cm
4 | COCCO[C@@H](Cn1c(=O)n(C(C)(C)C(=O)NC(C)C)c(=O)c2c(C)c(-n3nccn3)sc21)c1cc(F)ccc1OC [Compound I-074, (R)-2-(1-(2-(5-fluoro-2-methoxyphenyl)-2-(2-methoxyethoxy)ethyl)-5-methyl-2,4-dioxo-6-(2H-1,2,3-triazol-2-yl)-1,4-dihydrothieno[2,3-d]pyrimidin-3 (2H)-yl)-N-isopropyl-2-methylpropanamide] | – | – | – | – | – | AA (≥85% control of wheat septoria leaf blotch) | C (from 25 to 49% control of wheat fusarium head blight) | – | A (from 70% to 84% control of wheat leaf rust) | – | – | – | AA (≥85% control of barley powdery mildew) | AA (≥85% control of cucumber powdery mildew) | C (from 25 to 49% control of Asian soybean rust) | IC90 ([1]; ≥90% inhibition, 48 hours vs 2% DMSO control, read-out: Compound Concentration (ppm) sufficient for ≥90% inhibition of growth, Fv): 0.4 µg/mL (≈ 0.664 µM); Plant Weight (Pythium ultimum; fresh weight at 14 days): 4.33 g; Improvement in plant weight (Pythium ultimum; [17]): 69%; IC90 ([2]; ≥90% inhibition, 48 hours vs 2% DMSO control, read-out: Compound Concentration (ppm) sufficient for ≥90% inhibition of growth, Pc): ≥ 50 µg/mL; IC90 ([3]; ≥90% inhibition, 48 hours vs 2% DMSO control, read-out: Compound Concentration (ppm) sufficient for ≥90% inhibition of growth, Fm): 0.08 µg/mL (≈ 0.133 µM); IC90 (Botrtyis cinerea (Bc); ≥90% inhibition, 48 hours vs 2% DMSO control, read-out: Compound Concentration (ppm) sufficient for ≥90% inhibition of growth, Bc): 2 µg/mL (≈ 3.32 µM); IC90 (Diplodia maydis (Dm); ≥90% inhibition, 48 hours vs 2% DMSO control, read-out: Compound Concentration (ppm) sufficient for ≥90% inhibition of growth, Dm): 2 µg/mL (≈ 3.32 µM); IC90 (Septoria tritici (St); ≥90% inhibition, 48 hours vs 2% DMSO control, read-out: Compound Concentration (ppm) sufficient for ≥90% inhibition of growth, St): > 50 µg/mL; Plant Weight (Rhizoctonia solani; fresh weight at 14 days): 2.06 g; Improvement in plant weight (Rhizoctonia solani; [17]): 25.7%; IC90 (Rhizoctonia solani (Rs); ≥90% inhibition, 48 hours vs 2% DMSO control, read-out: Compound Concentration (ppm) sufficient for ≥90% inhibition of growth, Rs): 0.4 µg/mL (≈ 0.664 µM); IC90 ([6]; ≥90% inhibition, 48 hours vs 2% DMSO control, read-out: Compound Concentration (ppm) sufficient for ≥90% inhibition of growth, Cg): 2 µg/mL (≈ 3.32 µM)
